# What was measured:
# [1] = system: HCT15; test: MTT cytotoxicity test (GI50); assay type: cell-based; details: Homo sapiens, HCT-15; HCT15, cancer, colon; MTT 72 h
# [2] = system: NUGC3; test: MTT cytotoxicity test (GI50); assay type: cell-based; details: Homo sapiens, NUGC-3; NUGC3, cancer, gastric; MTT 72 h
# [3] = system: ARPE-19; test: MTT cytotoxicity test (GI50); assay type: cell-based; details: Homo sapiens; ARPE-19, normal, retina; MTT 72 h
# [4] = system: PIK3IP1; test: qRT-PCR and immunoblot of PIK3IP1 in BJ cells; assay type: cell-based, human; details: 5 μM, 24 h
# Method: Total RNA was isolated from cultured cells using the RNeasy mini kit (Qiagen). cDNA was synthesized from 1 μg of total RNA using the iScript cDNA synthesis kit (Bio-Rad). qRT-PCR analysis was performed using the iQ SYBR Green Super mix (Bio-Rad) using the following gene-specific primers:
# human PI5P4Kα (5′-[…]-3′; SEQ ID NO: 11, 5′-[…]-3′; SEQ ID NO: 12), human PI5P4Kβ (5′-[…]-3′; SEQ ID NO: 13, 5′-[…]-3′; SEQ ID NO: 14), human PI5P4Kγ (5′-[…]-3′; SEQ ID NO: 15, 5′-[…]-3′; SEQ ID NO: 16) and human PIK3IP1 (5′-[…]-3′; SEQ ID NO: 17, 5′-[…]-3′; SEQ ID NO: 18). The TATA-binding protein (TBP) gene was used for normalization. All PCR reactions were performed in triplicate.
# Total cell lysates were prepared with 1% triton lysis buffer [25 mM Tris HCl (pH 8.0), 150 mM NaCl, 1% triton-X100, 1 mM dithiothreitol (DTT), protease inhibitor mix (Complete Mini, Roche) and phosphatase inhibitor (PhosphoStop, Roche)] and subjected to SDS-PAGE. […] Where indicated, intensities of protein bands were quantified by densitometry (Odyssey V3.0), normalized to their loading controls and then calculated as fold expression change relative to DMSO control.
# [5] = target: T1, Liprin-beta-1 (Homo sapiens, UniProt Q86W92); test: MS-CETSA in normal BJ cell lysates; assay type: binding; details: lysate, 100 μM compound
# T1 construct: After collecting data covering >8,000 proteins in lysates of normal BJ cells; endogenous in cells; host or cells: normal BJ cells, lysate
# Method: (§2) Target identification was performed by cellular thermal shift assay (CETSA) coupled with quantitative mass spectrometry. In brief, normal BJ cells were lysed by combination of freeze/thaw and mechanical shearing with needle in buffer [50 mM HEPES (pH 7.5), 5 mM β-glycerophosphate, 0.1 mM Sodium Vanadate, 10 mM MgCl2, 1 mM TCEP and 1× Protease inhibitor Cocktail]. The cell debris was removed by centrifugation at 20,000 g for 20 min at 4° C. […] Each lysate was divided into 10 aliquots for heat treatment at the respective temperatures for 3 min in a 96-well thermocycler, followed by 3 min at 4° C. The lysate was centrifuged at 20,000 g for 20 min at 4° C. and the supernatant was transferred into microtubes for MS sample preparation.
# (§3) After lysis, at least 100 μg of the protein (measured with a BCA assay) was subjected to reduction, denaturation and alkylation. Samples were subsequently incubated with sequencing grade LysC (Wako) and trypsin (Promega) for digestion overnight at 37° C. The digested samples were dried using a centrifugal vacuum evaporator, solubilized in 100 mM TEAB. […]
# (§4) Proteins for which a low temperature plateau was not present were deleted using a cut off >0.85 for the average reading of the first three temperature points (in our experience proteins melting already at −37° C. are more prone to give false positives in a shift analysis).
# [6] = system: normal BJ cells; test: BrdU incorporation / cell growth arrest; assay type: cell-based, human
# Method: (§1) Cell death was assessed via Annexin V and/or PI (propidium iodide) staining according to the manufacturer's instructions (eBioscience). Cell growth arrest was assessed by direct measurement of DNA synthesis through incorporation of the nucleoside analog bromodeoxyuridine (BrdU). Briefly, BrdU (30 μM, Sigma-Aldrich) was added for 2 h before harvesting cells. Cells were subsequently stained with Pacific Blue-conjugated BrdU antibody (Invitrogen) for 1 h followed by PI staining. Stained cells were analyzed by MACSQuant (MACS). Three independent experiments were performed in triplicate. The percentage of Annexin V/PI- or BrdU-positive cells was quantified using Flow Jo software (Becton Dickinson). Where indicated, the combined activity of caspase-3/7 was determined using the caspase-Glo 3/7 Assay Kit (Promega) and normalized to the number of viable cells as determined by MTT assay.
# [7] = system: HGC27; test: MTT cytotoxicity test (GI50); assay type: cell-based; details: Homo sapiens, HGC-27; HGC27, cancer, gastric; MTT 72 h
# [8] = target: T2, RNA-binding protein 4 (Homo sapiens, UniProt Q9BWF3); test: MS-CETSA in normal BJ cell lysates; details: lysate, 100 μM compound
# T2 construct: After collecting data covering >8,000 proteins in lysates of normal BJ cells; endogenous in cells; host or cells: normal BJ cells, lysate
# Method: as §2, §3, §4
# [9] = system: normal and transformed BJ cells; test: a131 SAR analysis: pH3(Ser10) immunoblot, BrdU incorporation, subG1 FACS; assay type: cell-based, human; design: key: Group 1: possess the dual-inhibitory properties of both causing the arrest of normal BJ cells at the G1/S phase and also causing mitotic arrest/catastrophe in transformed BJ cells; Group 2: only cause the arrest of normal BJ cells at the G1/S phase; Group 3: cause mitotic arrest/catastrophe in transformed BJ cells, but do not arrest normal BJ cells at the G1/S phase; Group 4: are inactive or weakly active; details: 5 μM, 48 h
# Method: as §1
# Total cell lysates were prepared with 1% triton lysis buffer [25 mM Tris HCl (pH 8.0), 150 mM NaCl, 1% triton-X100, 1 mM dithiothreitol (DTT), protease inhibitor mix (Complete Mini, Roche) and phosphatase inhibitor (PhosphoStop, Roche)] and subjected to SDS-PAGE. The following antibodies were used for immunoblotting: anti-β-actin (Sigma-Aldrich), anti-cleaved PARP (Abcam, #ab32064), anti-PI5P4Kα (#5527), anti-PI5P4Kβ (#9694), anti-cleaved caspase-3 (#9664), anti-pHistone H3(Ser10) (#3377), anti-pAkt(S473) (#9271), anti-pAkt(T308) (#13038), anti-total Akt (#9272), anti-p70S6K(T389) (#9234), anti-total p70S6K (#9202), anti-pErk (#4370), anti-γ-Histone H2AX (#9718) (Cell signaling) and anti-PIK3IP1 (Proteintech, #16826-1-AP). The secondary antibodies used were sheep anti-mouse IgG HRP and donkey anti-rabbit IgG HRP (Amersham; 1:2000 dilution). Immunoreactive proteins were visualized using ECL reagent (Amersham). Where indicated, intensities of protein bands were quantified by densitometry (Odyssey V3.0), normalized to their loading controls and then calculated as fold expression change relative to DMSO control.
# [10] = system: Hep3; test: MTT cytotoxicity test (GI50); assay type: cell-based; details: Homo sapiens; Hep3, cancer, liver; MTT 72 h
# [11] = target: T3, Isoform 2 of Ferrochelatase, mitochondrial (Homo sapiens, UniProt P22830); test: MS-CETSA in normal BJ cell lysates; assay type: binding; details: Uniprot P22830-2, lysate, 100 μM compound
# T3 construct: After collecting data covering >8,000 proteins in lysates of normal BJ cells; endogenous in cells; host or cells: normal BJ cells (hTert-immortalised human foreskin fibroblasts), lysate
# Method: as §2, §3, §4
# [12] = system: A549; test: MTT cytotoxicity test (GI50); assay type: cell-based; details: Homo sapiens; A549, cancer, others, lung; MTT 72 h
# [13] = system: human normal cell lines; test: MTT cytotoxicity test, panel of human normal cell lines; assay type: cell-based; details: mean over panel of human normal cell lines; MTT 72 h
# [14] = system: WI38; test: MTT cytotoxicity test (GI50); assay type: cell-based; details: Homo sapiens, WI-38; WI38, normal, lung; MTT 72 h
# [15] = system: BJ normal; test: MTT cytotoxicity test (GI50); assay type: cell-based; details: Homo sapiens, skin, MTT 72 h
# [16] = target: T4, Phosphatidylinositol 5-phosphate 4-kinase type-2 gamma (Homo sapiens, UniProt Q8TBX8); test: MS-CETSA in normal BJ cell lysates; assay type: binding; details: lysate, 100 μM compound
# T4 construct: After collecting data covering >8,000 proteins in lysates of normal BJ cells; endogenous in cells; host or cells: normal BJ cells, lysate
# T4 sequence (Q8TBX8 whole entry): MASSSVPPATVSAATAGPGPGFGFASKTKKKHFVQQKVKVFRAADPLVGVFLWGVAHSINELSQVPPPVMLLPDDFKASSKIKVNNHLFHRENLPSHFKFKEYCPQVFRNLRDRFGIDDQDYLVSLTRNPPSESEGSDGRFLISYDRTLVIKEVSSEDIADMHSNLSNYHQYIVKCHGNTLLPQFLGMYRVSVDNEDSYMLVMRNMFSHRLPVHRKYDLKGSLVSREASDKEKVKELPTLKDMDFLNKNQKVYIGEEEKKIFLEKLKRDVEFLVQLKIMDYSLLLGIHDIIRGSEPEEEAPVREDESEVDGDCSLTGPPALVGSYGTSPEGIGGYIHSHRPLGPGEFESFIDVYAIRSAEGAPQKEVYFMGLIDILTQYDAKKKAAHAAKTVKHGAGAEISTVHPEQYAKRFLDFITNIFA
# Method: as §2, §3, §4
# T1 sequence (Q86W92 whole entry): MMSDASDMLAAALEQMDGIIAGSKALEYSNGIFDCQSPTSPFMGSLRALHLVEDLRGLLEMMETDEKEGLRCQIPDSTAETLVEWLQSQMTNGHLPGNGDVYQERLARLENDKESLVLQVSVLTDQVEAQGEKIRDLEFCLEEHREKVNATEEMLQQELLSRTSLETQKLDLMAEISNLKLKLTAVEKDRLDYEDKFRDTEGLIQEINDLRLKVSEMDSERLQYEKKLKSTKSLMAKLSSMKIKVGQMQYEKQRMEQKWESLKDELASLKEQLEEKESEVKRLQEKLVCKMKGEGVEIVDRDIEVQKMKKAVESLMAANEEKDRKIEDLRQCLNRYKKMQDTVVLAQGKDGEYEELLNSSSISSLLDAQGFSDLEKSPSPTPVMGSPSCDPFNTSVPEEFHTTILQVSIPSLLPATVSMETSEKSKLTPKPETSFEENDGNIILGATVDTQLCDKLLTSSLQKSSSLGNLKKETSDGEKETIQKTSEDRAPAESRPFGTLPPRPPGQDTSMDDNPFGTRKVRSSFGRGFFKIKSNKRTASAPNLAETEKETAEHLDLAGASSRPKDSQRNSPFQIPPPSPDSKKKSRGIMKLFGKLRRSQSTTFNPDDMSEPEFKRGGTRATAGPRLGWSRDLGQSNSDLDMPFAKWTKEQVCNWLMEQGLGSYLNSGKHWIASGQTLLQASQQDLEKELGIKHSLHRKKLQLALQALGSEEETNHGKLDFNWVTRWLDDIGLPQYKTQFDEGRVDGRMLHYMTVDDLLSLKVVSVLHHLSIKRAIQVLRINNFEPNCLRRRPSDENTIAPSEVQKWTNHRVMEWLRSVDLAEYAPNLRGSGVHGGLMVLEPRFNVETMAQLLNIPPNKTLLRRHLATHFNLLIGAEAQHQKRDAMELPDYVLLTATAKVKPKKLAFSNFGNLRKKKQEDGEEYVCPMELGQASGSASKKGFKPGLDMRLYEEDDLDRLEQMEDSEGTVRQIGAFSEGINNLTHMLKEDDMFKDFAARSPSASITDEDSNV
# T3 sequence (P22830 55-429 isoform P22830-2 limits assumed): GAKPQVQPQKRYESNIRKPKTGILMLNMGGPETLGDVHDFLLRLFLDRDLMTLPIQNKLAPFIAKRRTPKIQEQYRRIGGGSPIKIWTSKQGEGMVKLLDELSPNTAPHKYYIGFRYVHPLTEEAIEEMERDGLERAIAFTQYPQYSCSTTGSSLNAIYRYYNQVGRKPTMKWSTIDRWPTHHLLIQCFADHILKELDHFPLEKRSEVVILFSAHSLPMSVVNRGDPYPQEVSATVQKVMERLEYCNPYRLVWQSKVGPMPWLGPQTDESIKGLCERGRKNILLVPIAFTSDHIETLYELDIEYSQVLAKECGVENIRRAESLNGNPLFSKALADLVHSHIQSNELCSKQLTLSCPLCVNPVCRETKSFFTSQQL
# T2 sequence (Q9BWF3 whole entry): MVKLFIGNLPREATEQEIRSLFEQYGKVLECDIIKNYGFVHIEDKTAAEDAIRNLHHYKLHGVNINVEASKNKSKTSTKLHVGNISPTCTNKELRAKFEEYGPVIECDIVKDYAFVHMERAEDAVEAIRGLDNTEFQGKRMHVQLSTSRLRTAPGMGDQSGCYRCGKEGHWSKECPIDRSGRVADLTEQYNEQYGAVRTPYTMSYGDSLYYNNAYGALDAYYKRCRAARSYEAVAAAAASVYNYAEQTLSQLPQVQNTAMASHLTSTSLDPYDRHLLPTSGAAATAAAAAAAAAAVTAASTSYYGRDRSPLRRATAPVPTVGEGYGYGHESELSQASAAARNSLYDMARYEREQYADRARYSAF
smiles,measurement,setting,value
"N#C/C(=C\c1cccc2cnccc12)c1c[nH]c2ccccc12 [a131, (Z)-2-(1H-indol-3-yl)-3-(5-isoquinolyl)prop-2-enenitrile]",GI50,[1],0.5 µM
same,GI50,[2],1 µM
same,GI50,[3],> 10 µM
same,PIK3IP1 mRNA and protein levels,[4]; normal BJ cells,up-regulation of PIK3IP1 at both the mRNA and protein levels
same,PIK3IP1 mRNA expression,[4]; transformed BJ cells,unresponsive
same,ED score,[5],0.3387
same,ΔTm at 100 µM,[5]; read-out: mean Delta Tm,2.07 °C
same,cell cycle arrest (BrdU incorporation),"[6]; 2.5 μM, 48 h",arrested normal BJ cells at the G1/S phase of the cell cycle with few BrdU incorporation
same,reversibility of growth arrest after drug removal,"[6]; 5 μM for 2 or 4 days, then fresh media up to 11 days",transient and reversible after a131 removal
same,GI50,[7],1.2 µM
same,ED score,[8],0.3323
same,ΔTm at 100 µM,[8]; read-out: mean Delta Tm,1.88 °C
same,Group (a131 SAR analysis),[9],Group 1
same,GI50,[10],3.7 µM
same,ED score,[11],0.8366
same,ΔTm at 100 µM,[11]; read-out: mean Delta Tm,3.81 °C
same,GI50,[12],2 µM
same,GI50,[13],6.5 µM
same,GI50,[14],3.4 µM
same,GI50,[15],8.1 µM
same,ED score,[16],0.5989
same,ΔTm at 100 µM,[16]; read-out: mean Delta Tm,2.89 °C
